Laboratory results taken from patent US5466688A, “Pyrido[3,4-B]indole derivatives as serotonergic agents” (American Home Products Corporation, priority 1994, dated 1995).

Legend:
[1] = target: T1, 5-HT1A serotonin receptor (Rattus norvegicus, UniProt P19327); test: 5-HT1A receptor binding: displacement of [3H] 8-OHDPAT; details: procedure of Hall et al.
T1 construct: following the procedure of Hall et al., J. Neurochem; 44 1685 (1985); from tissue
T1 sequence (P19327 1-422): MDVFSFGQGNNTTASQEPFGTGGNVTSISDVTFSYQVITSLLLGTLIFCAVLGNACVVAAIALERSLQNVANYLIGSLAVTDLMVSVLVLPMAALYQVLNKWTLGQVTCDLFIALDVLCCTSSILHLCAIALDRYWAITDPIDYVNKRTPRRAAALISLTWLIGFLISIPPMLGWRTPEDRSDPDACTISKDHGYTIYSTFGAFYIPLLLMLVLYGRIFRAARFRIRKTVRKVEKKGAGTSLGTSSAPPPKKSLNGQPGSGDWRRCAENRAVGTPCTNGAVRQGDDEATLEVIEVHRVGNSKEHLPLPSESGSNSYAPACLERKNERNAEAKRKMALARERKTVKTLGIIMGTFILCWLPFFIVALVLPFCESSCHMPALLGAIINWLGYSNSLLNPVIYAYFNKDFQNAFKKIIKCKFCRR
Procedure: High affinity for the serotonin 5-HT1A receptor for the compounds of this invention was established by testing them in accordance with the standard pharmacological test procedure in which the compound's ability to displace [^3 H] 8-OHDPAT (dipropylaminotetralin) from the 5-HT1A serotonin receptor was determined following the procedure of Hall et al., J. Neurochem. 44 1685 (1985). […] The anxiolytic activity of buspirone is believed to be, at least partially, due to its 5-HT1A receptor affinity [VanderMaelen et al., Eur. J. Pharmacol. 1986, 129 (123-130)].

[2] = target: T1, 5-HT1A serotonin receptor; details: buspirone, literature (VanderMaelen et al. 1986); cited from earlier work

IC50 [1] | SMILES | affinity for the 5-HT1A serotonin receptor (in words) [2]
37.1 nM | CN1c2ccccc2[C@@H]2CCN(CCC(C(=O)N3CCCCCC3)c3ccccc3)C[C@H]21 (relative stereo) [Example 3, 1-Azepan-1-yl-4-((trans)-9-methyl-1,3,4,4a,9,9a-hexahydro-2H-pyrido[3,4-b]indol-2-yl)-2-phenyl-butan-1-one] | 
33.3 nM | Cn1c2c(c3ccccc31)CCN(CCC(C(=O)N1CCCCCC1)c1ccccc1)C2 (centres unmarked) [Example 2, 1-Azepan-1-yl-4-(9-methyl-1,3,4,9-tetrahydro-2H-pyrido[3.4-b]-indol-2-yl]-2-phenyl-butan-1-one] | 

Continued, compound first:

SMILES | IC50 [1] | affinity for the 5-HT1A serotonin receptor (in words) [2]
O=C(C(CCN1CC[C@H]2c3ccccc3N[C@H]2C1)c1ccccc1)N1CCCCCC1 (relative stereo) [Example 4, 1-Azepan-1-yl-4-((cis)-1,3,4,4a,9,9a-hexahydro-2H-pyrido[3,4-b]indol-2-yl)-2-phenyl-butan-1-one] | 67.4 nM | 
O=C(C(CCN1CCc2c([nH]c3ccccc23)C1)c1ccccc1)N1CCCCCC1 (centres unmarked) [Example 1, 1-Azepan-1-yl-2-phenyl-4-(1,3,4,9-tetrahydro-2H-pyrido[3.4-b]indol-2-yl]-butan-1-one] | 30.9 nM | 
O=C1CC2(CCCC2)CC(=O)N1CCCCN1CCN(c2ncccn2)CC1 [buspirone] |  | potent affinity
